Experimental data reported in patent publication US20090047243A1, “COMBINATIONS FOR THE TREATMENT OF B-CELL PROLIFERATIVE DISORDERS” (priority 2007, published 2009).
Counter-ions that a name gives are not always drawn.

What was measured:
[1] = test system: EJM MM cell line; assay: Anti-proliferation assay (ATPLite, 72 h); format: cell-based, human; conditions: CGS-21680 × PDE inhibitor
Description: (§1) ANBL6 and INA-6 culture media was also supplemented with 10 ng/ml IL-6. […] MM.1S, MM.1R, OCI-ly10, Karpas 422, and SU-DHL6 cells were provided by the Dana Farber Cancer Institute. H929, RPMI-8226, GA-10, and Farage cells were from ATCC (Cat #'s CCL-155, CRL-9068, CRL-2392 and CRL-2630 respectively). MOLP-8, EJM, KSM-12-PE, and OPM2 were from DSMZ. The ANBL6 and INA-6 cell lines were provided by the M. D. Anderson Cancer Research Center. Compounds were prepared in DMSO at 1000× the highest desired concentration. Master plates were generated consisting of serially diluted compounds in 2- or 3-fold dilutions in 384-well format. For single agent dose response curves, the master plates consisted of 9 individual compounds at 12 concentrations in 2- or 3-fold dilutions. For combination matrices, master plates consisted of individual compounds at 6 or 9 concentrations at 2- or 3-fold dilutions. […] To obtain combination data, two master plates were diluted into the assay plates. […] Thirty microliters of ATPLite (Perkin Elmer) at room temperature was then added to each well. […] Measurements were taken at the top of the well using a luminescence aperture and a read time of 0.1 seconds per well. The percent inhibition (% I) for each well was calculated using the following formula: % I=[(avg. untreated wells-treated well)/(avg. untreated wells)]×100. […] Negative inhibition values result from local variations in treated wells as compared to untreated wells. […] The uncertainty of each fitted parameter was estimated from the range over which the change in reduced chi-squared was less than one, or less than minimum reduced chi-squared if that minimum exceeded one, to allow for underestimated σI errors. Single agent curve data were used to define a dilution series for each compound to be used for combination screening in a 6×6 matrix format. […] The Loewe additivity model was used to quantify combination effects. […] A “Synergy Score” was also used, where the Synergy Score S=log fX log fY ΣIdata(Idata-ILoewe), summed over all non-single-agent concentration pairs, and where log fX,Y is the natural logarithm of the dilution factors used for each single agent. This effectively calculates a volume between the measured and Loewe additive response surfaces, weighted towards high inhibition and corrected for varying dilution factors. An uncertainty σS was calculated for each synergy score, based on the measured errors for the Idata values and standard error propagation.

[2] = test system: OPM2 MM cell line; assay: Anti-proliferation assay (ATPLite, 72 h); format: cell-based, human; conditions: CGS-21680 × PDE inhibitor
Description: as §1

[3] = test system: ANBL6 MM cell line; assay: Anti-proliferation assay (ATPLite, 72 h); format: cell-based, human; conditions: CGS-21680 × PDE inhibitor
Description: as §1

[4] = test system: MOLP-8 MM cell line; assay: Anti-proliferation assay (ATPLite, 72 h); format: cell-based, human; conditions: CGS-21680 × PDE inhibitor
Description: as §1

[5] = test system: H929 multiple myeloma cell line; assay: Anti-proliferation assay (ATPLite, 72 h); format: cell-based, human; parameters: key: S = lnfX·lnfY·ΣIdata(Idata−ILoewe), volume over Loewe additivity; conditions: for synergy (score), PDEi × HE-NECA: 6×6 cross of PDE inhibitor or PDE inhibitor mixture with HE-NECA
In short: (§2)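 ATPLite luminescence readout; ANBL6 medium + 10 ng/ml IL-6. Single agents tested at 12 concentrations, 2- or 3-fold serial dilutions. % inhibition vs untreated-well mean.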

[6] = test system: RPMI-8226 multiple myeloma cell line; assay: Anti-proliferation assay (ATPLite, 72 h); format: cell-based, human; parameters: key: S = lnfX·lnfY·ΣIdata(Idata−ILoewe), volume over Loewe additivity
In short: as §2

[7] = test system: human multiple myeloma cells (MM.1R) transfected with siRNA; assay: Anti-proliferation assay after siRNA transfection; format: cell-based
Description: siRNA to adenosine receptor A1, A2A, A3, PDE 2A, PDE 3B, PDE 4B, PDE 4D and PDE 7A, and control siRNA siCON were purchased from Dharmacon. A2B siRNA was purchased from Invitrogen. Electroporations were performed using an Amaxa Nucleoporator (program S-20) and solution V. siRNAs were used at 50 nM. […] RNA was isolated using Qiagen RNAeasy kits, and targets quantified by RT-PCR using gene specific primers purchased from Applied Biosystems.
Cells were added to 384-well plates 24 hours prior to compound addition such that each well contained 2000 cells in 35 μL of media. Master plates were diluted 100× (1 μL into 100 μL) into 384-well dilution plates containing only cell culture media. 4.5 μL from each dilution plate was added to each assay plate for a final dilution of 1000×. To obtain combination data, two master plates were diluted into the assay plates. Following compound addition, assay plates were kept at 37° C. and 5% CO2 for 72 hours. Thirty microliters of ATPLite (Perkin Elmer) at room temperature was then added to each well. Final amount of ATP was quantified within 30 minutes using ATPLite luminescent read-out on an Envision 2103 Multilabel Reader (Perkin Elmer). Measurements were taken at the top of the well using a luminescence aperture and a read time of 0.1 seconds per well.
We also examined the antiproliferative activity of adenosine receptor agonists when the MM cell line MM.1R was transfected with siRNA targeting the A1, A2A, A2B or A3 receptor. Specific gene silencing (A1, A2A, A2B, or A3) was greater than 50% as determined by real time PCR analysis 48 hours post-transfection. At 48 hours post-transfection, cells were exposed to adenosine receptor agonist, incubated an additional 72 hours, and compounds assayed for antiproliferative activity. Representative data is in Table 34. Cells transfected with adenosine receptor siRNA or a control siRNA (scrambled sequences designed so that cellular transcriptsare not targeted) were treated with the adenosine receptor agonist ADAC. […] Similar results were obtained with a second siRNA with specificity for different region of the A2A receptor mRNA, confirming that the reduction in adenosine receptor agonist activity is the result of specific siRNA targeting of the A2A receptor (data not shown).
In our experiments, PDE gene silencing was always greater than 50% as confirmed by real time PCR analysis 48 hours post-transfection. At 48 hours post-transfection, cells were exposed to adenosine receptor agonist and PDE inhibitor, incubated an additional 72 hours, and compounds assayed for antiproliferative activity. Representative data is in Tables 39-45. For each analysis, the activity of cells transfected with an siRNA targeting a specific PDE was compared to cells transfected with a control non-targeting siRNA (siCON).

[8] = PDE inhibitor crossed with (S) ENBA, H929
[9] = PDE inhibitor crossed with Chloro-IB-MECA, H929
[10] = PDE inhibitor crossed with HE-NECA, H929
[11] = in combination with adenosine receptor agonist CGS-21680, H929
[12] = in combination with adenosine receptor agonist HE-NECA, H929
[13] = in combination with adenosine receptor agonist regadenoson, H929
[14] = in combination with adenosine receptor agonist CGS-21680, RPMI 8226
[15] = in combination with adenosine receptor agonist HE-NECA, RPMI-8226
[16] = in combination with adenosine receptor agonist regadenoson, RPMI 8226

COc1cc2c(cc1OC)-c1cc(=Nc3c(C)cc(C)cc3C)n(C)c(=O)n1CC2 [Trequinsin hydrochloride, 2,3,6,7-tetrahydro-9,10-dimethoxy-3-methyl-2-((2,4,6-trimethylphenyl)imino)-4H-pyrimido(6,1-a)isoquinolin-4-one]
synergy score [1]: 4.81
synergy score [2]: 4.74
synergy score [3]: 4.55
synergy score [4]: 4.7
synergy (score), PDEi × HE-NECA ([5]; H929): 4.22
synergy score [5, 8]: 3.38
synergy score ([5]; PDE inhibitor crossed with ADAC, H929): 3.04
synergy score [5, 9]: 2.77
synergy score [5, 10]: 4.34
synergy score ([5]; in combination with adenosine receptor agonist ADAC, H929): 3.044
synergy score [5, 11]: 3.33
synergy score [5, 12]: 3.141
synergy score [5, 13]: 1.99
synergy score ([6]; in combination with adenosine receptor agonist ADAC, RPMI-8226): 0.9183
synergy score [6, 14]: 0.72
synergy score [6, 15]: 0.793
synergy score [6, 16]: 0.4

CCCCC#Cc1nc(N)c2ncn([C@@H]3O[C@H](C(=O)NCC)[C@@H](O)[C@H]3O)c2n1 [HE-NECA, hexynyladenosine-5′-N-ethylcarboxamide]
Antiproliferative activity ([7]; A2A siRNA, HE-NECA 0.5 μM): 30%
Antiproliferative activity ([7]; A2A siRNA, HE-NECA 1 μM): 29%
Antiproliferative activity ([7]; A2A siRNA, HE-NECA 2 μM): 38%
Antiproliferative activity ([7]; A2A siRNA, HE-NECA 4.1 μM): 40%
effect of A2A receptor silencing on agonist activity ([7]; MM.1R, A2A siRNA): strong effect
Antiproliferative activity ([7]; MM.1R, siRNA targeting PDE 2A, HE-NECA 1.25 nM, R-(−)-Rolipram 0 μM): 36
Antiproliferative activity ([7]; MM.1R, siRNA targeting PDE 2A, HE-NECA 5 nM, R-(−)-Rolipram 0 μM): 51
Antiproliferative activity ([7]; MM.1R, siRNA targeting PDE 2A, HE-NECA 10 nM, R-(−)-Rolipram 0 μM): 55
Antiproliferative activity ([7]; MM.1R, siRNA targeting PDE 2A, HE-NECA 20 nM, R-(−)-Rolipram 0 μM): 68
Antiproliferative activity ([7]; MM.1R, siRNA targeting PDE 2A, HE-NECA […], R-(−)-Rolipram 0 μM): 48
Antiproliferative activity ([7]; control siRNA, HE-NECA 0.5 μM): 68%
Antiproliferative activity ([7]; control siRNA, HE-NECA 1 μM): 68%
Antiproliferative activity ([7]; control siRNA, HE-NECA 2 μM): 73%
Antiproliferative activity ([7]; control siRNA, HE-NECA 4.1 μM): 74%

COc1cc(-c2ccc(=O)[nH]n2)ccc1OC(F)F [Zardaverine, 6-(4-(difluoromethoxy)-3-methoxyphenyl)-3(2H)-Pyridazinone]
synergy score [1]: 0.98
synergy score [2]: 1.15
synergy score [3]: 2.11
synergy score [4]: 3.06
synergy (score), PDEi × HE-NECA ([5]; H929): 3.39
synergy score [5, 8]: 4.02
synergy score [5, 9]: 2.97
synergy score [5, 10]: 3.39
synergy score [5, 11]: 3.75
synergy score [5, 12]: 3.39
synergy score [5, 13]: 1.02
synergy score [6, 14]: 0.13
synergy score [6, 15]: 0.43
synergy score [6, 16]: 0.52

NCCNC(=O)Cc1ccc(NC(=O)Cc2ccc(Nc3ncnc4c3ncn4[C@@H]3O[C@H](CO)[C@@H](O)[C@H]3O)cc2)cc1 [ADAC, N-(4-(2-((4-(2-((2-aminoethyl)amino)-2-oxoethyl)phenyl)amino)-2-oxoethyl)phenyl)-Adenosine]
Antiproliferative activity ([7]; A1 siRNA, ADAC 0.013 μM): 18%
Antiproliferative activity ([7]; A1 siRNA, ADAC 0.063 μM): 16%
Antiproliferative activity ([7]; A1 siRNA, ADAC 0.51 μM): 41%
Antiproliferative activity ([7]; A1 siRNA, ADAC 1 μM): 52%
Antiproliferative activity ([7]; A2A siRNA, ADAC 0.013 μM): 12%
Antiproliferative activity ([7]; A2A siRNA, ADAC 0.063 μM): 6.7%
Antiproliferative activity ([7]; A2A siRNA, ADAC 0.51 μM): 19%
Antiproliferative activity ([7]; A2A siRNA, ADAC 1 μM): 24%
Antiproliferative activity ([7]; A2B siRNA, ADAC 0.013 μM): 17%
Antiproliferative activity ([7]; A2B siRNA, ADAC 0.063 μM): 12%
Antiproliferative activity ([7]; A2B siRNA, ADAC 0.51 μM): 40%
Antiproliferative activity ([7]; A2B siRNA, ADAC 1 μM): 53%
Antiproliferative activity ([7]; A3 siRNA, ADAC 0.013 μM): 22%
Antiproliferative activity ([7]; A3 siRNA, ADAC 0.063 μM): 18%
Antiproliferative activity ([7]; A3 siRNA, ADAC 0.51 μM): 46%
Antiproliferative activity ([7]; A3 siRNA, ADAC 1 μM): 54%
antiproliferative activity after siRNA silencing ([7]; MM.1R, siRNA that targeted the A2A receptor): reduced
antiproliferative activity after siRNA silencing ([7]; MM.1R, siRNA to the A1, A2B, or A3 receptor): did not affect ADAC activity
Antiproliferative activity ([7]; control siRNA, ADAC 0.013 μM): 19%
Antiproliferative activity ([7]; control siRNA, ADAC 0.063 μM): 15%
Antiproliferative activity ([7]; control siRNA, ADAC 0.51 μM): 43%
Antiproliferative activity ([7]; control siRNA, ADAC 1 μM): 54%
